Molecules are shown by their SMILES. The source made the active and inactive calls. The calls are words filed in the database; no cut-off is given here.

Drawing on ChEMBL document CHEMBL1833962, “Benzotriazinone and benzopyrimidinone derivatives as potent positive allosteric AMPA receptor modulators” (2011), this text covers CD and Activity for 37 compounds.

The species entered for the first experiment is Rattus norvegicus. Briefly: Positive allosteric modulation of AMPA receptor in Sprague-Dawley rat hippocampal neuron assessed as glutamate-induced response pre-treated for 20 secs by patch-clamp electrophysiology. In kind it is tissue-based. The settings on record: Hippocampus. On the technique in general: The patch-clamp technique gives a direct electrical read-out from membranes.
For the compound `CC(C)(CN1COc2cc3c(cc2C1=O)OC1CCCN1C3=O)c1cccc(F)c1` (stereo unspecified), the CD turned out to be 17 µM.
Consider `C#C[C@H](Cc1cc(F)cc(F)c1)n1cnc2cc3c(cc2c1=O)OC1CCCN1C3=O` (stereo partly specified), for which the CD worked out at 0.002 µM.
For the compound `O=C1c2cc3ncn(CCn4cc(Cl)cn4)c(=O)c3cc2OC2CCCN12` (stereo unspecified), the CD amounted to 0.019 µM.
Still for that read-out and setting: the result for `O=C1c2cc3ncn(CCn4cccn4)c(=O)c3cc2OC2CCCN12` (stereo unspecified) reads 0.17 µM; that for `O=C1c2cc3c(cc2OCN1CC(O)c1ccccc1)C(=O)N1CCCC1O3` (racemic), 1 µM.
Turning to `O=C1c2cc3ncn(CCc4ccccc4)c(=O)c3cc2OC2CCCN12` (stereo unspecified), the CD is 0.13 µM.
On to `C#C[C@H](Cc1cccc(F)c1)N1COc2cc3c(cc2C1=O)OC1CCCN1C3=O` (stereo partly specified), for which the CD stood at 0.004 µM.
For the compound `COC(CN1COc2cc3c(cc2C1=O)OC1CCCN1C3=O)c1ccccc1` (racemic), the CD came to 7.4 µM.
Take `Cn1nnc2cc3c(cc2c1=O)OC1CCCN1C3=O` (stereo unspecified): the CD was determined as 0.68 µM.
Consider `C#C[C@H](Cc1cccc(F)c1)n1nnc2cc3c(cc2c1=O)OCN(C1CC1)C3=O`, for which the CD came out at 0.2 µM.
`CC[C@H](Cc1cccc(F)c1)n1nnc2cc3c(cc2c1=O)OC1CCCN1C3=O` (stereo partly specified): the CD was 0.021 µM.
As to `C[C@H](Cn1ncnn1)n1nnc2cc3c(cc2c1=O)OCN(C1CC1)C3=O`, the CD came to 0.46 µM.
For the compound `O=C1c2cc3c(cc2OCN1CCc1cccc(F)c1)C(=O)N1CCCC1O3` (stereo unspecified), the CD came out at 0.011 µM.
Consider `C[C@H](Cn1cc(Cl)cn1)n1cnc2cc3c(cc2c1=O)OC1CCCN1C3=O` (stereo partly specified), for which the CD worked out at 0.0069 µM.
As for `CC[C@H](Cn1cc(Cl)cn1)n1cnc2cc3c(cc2c1=O)OC1CCCN1C3=O` (stereo partly specified), the CD was found to be 0.0084 µM.
`C#CCn1cnc2cc3c(cc2c1=O)OC1CCCN1C3=O` (stereo unspecified): the CD came to 0.13 µM.
Take `O=C1c2cc3c(cc2OCN1CCc1ccccc1)C(=O)N1CCCC1O3` (stereo unspecified): the CD is 0.25 µM.
In the case of `C[C@H](Cn1cnnn1)n1nnc2cc3c(cc2c1=O)OCN(C1CC1)C3=O`, the CD was 0.19 µM.
For `O=C1c2cc3nnn(C4CC4)c(=O)c3cc2OC2CCCN12` (stereo unspecified), the CD turned out to be 0.4 µM.
Turning to `C#C[C@H](Cc1cccc(F)c1)n1cnc2cc3c(cc2c1=O)OC1CCCN1C3=O` (stereo partly specified), the CD turned out to be 0.006 µM.
Regarding `C#C[C@H](Cc1cc(F)cc(F)c1)n1nnc2cc3c(cc2c1=O)OC1CCCN1C3=O` (stereo partly specified), the CD amounted to 0.0029 µM.
For `O=C1c2cc3nnn(CCn4cccn4)c(=O)c3cc2OC2CCCN12` (stereo unspecified), the CD is 0.1 µM.
As to `C[C@H](Cn1nccn1)n1cnc2cc3c(cc2c1=O)OC1CCCN1C3=O` (stereo partly specified), the CD was 0.45 µM.
For `O=C1c2cc3ncn(C4CC4)c(=O)c3cc2OC2CCCN12` (stereo unspecified), the CD is 6.7 µM.
In the case of `C#CCn1nnc2cc3c(cc2c1=O)OC1CCCN1C3=O` (stereo unspecified), the CD is 0.14 µM.
Turning to `O=C1c2cc3nnn(CCc4cccc(F)c4)c(=O)c3cc2OC2CCCN12` (stereo unspecified), the CD worked out at 0.0031 µM.
Take `COC(=O)[C@@H](Cc1ccccc1)N1COc2cc3c(cc2C1=O)OC1CCCN1C3=O` (stereo partly specified): the CD was found to be 48 µM.
On the same count and under the same terms, the same measure for `C[C@H](Cn1ncnn1)n1cnc2cc3c(cc2c1=O)OC1CCCN1C3=O` (stereo partly specified): 0.03 µM.
Turning to `C#C[C@H](Cc1ccccc1)N1COc2cc3c(cc2C1=O)OC1CCCN1C3=O` (stereo partly specified), the CD came to 0.32 µM.
`C[C@@H](Cn1cc(Cl)cn1)n1cnc2cc3c(cc2c1=O)OC1CCCN1C3=O` (stereo partly specified): the CD entry was “inactive”.
Take `O=C1c2cc3ncn(CCc4cccc(F)c4)c(=O)c3cc2OC2CCCN12` (stereo unspecified): the CD is 0.0037 µM.
For the compound `C[C@H](Cn1cnnn1)n1nnc2cc3c(cc2c1=O)OC1CCCN1C3=O` (stereo partly specified), the CD came to 0.015 µM.
On the same count and under the same terms, the same measure for `O=C(CN1COc2cc3c(cc2C1=O)OC1CCCN1C3=O)c1ccccc1` (stereo unspecified): 100 µM.
The same measure, in the same setting: the same measure for `COC(=O)[C@H](Cc1ccccc1)N1COc2cc3c(cc2C1=O)OC1CCCN1C3=O` (stereo partly specified): 0.28 µM; for `O=C1c2cc3c(cc2OCN1CC(F)(F)c1cccc(F)c1)C(=O)N1CCCC1O3` (stereo unspecified): 1.5 µM; for `C#C[C@H](Cc1cccc(F)c1)n1nnc2cc3c(cc2c1=O)OC1CCCN1C3=O` (stereo partly specified): 0.004 µM.
`C[C@H](Cn1ncnn1)n1nnc2cc3c(cc2c1=O)OC1CCCN1C3=O` (stereo partly specified): the CD was 0.042 µM.

For the next experiment, the system named is Rattus norvegicus. As to the kind of experiment: Positive allosteric modulation of AMPA receptor in anesthetized Long-Evans rat assessed as amplitude increase by measuring evoked hilar excitatory post-synaptic field potentials at 2 mg/kg, ip for every 20 secs up to 80 to 100 mins. In kind it is functional. The note with it: route intraperitoneal.
Turning to `C#C[C@H](Cc1cccc(F)c1)n1cnc2cc3c(cc2c1=O)OC1CCCN1C3=O` (stereo partly specified), the Activity is listed as 12%.
Consider `C#C[C@H](Cc1cccc(F)c1)n1nnc2cc3c(cc2c1=O)OC1CCCN1C3=O` (stereo partly specified), for which the Activity came to 5%.

The next experiment has as its system Rattus norvegicus. As to the kind of experiment: Positive allosteric modulation of AMPA receptor in anesthetized Long-Evans rat assessed as amplitude increase by measuring evoked hilar excitatory post-synaptic field potentials at 5 mg/kg, ip for every 20 secs up to 80 to 100 mins by electrophysiology assay.
Settings: not given
In kind it is functional.
For `O=C1c2cc3ncn(CCn4cccn4)c(=O)c3cc2OC2CCCN12` (stereo unspecified), the outcome was inactive.
Take `Cn1nnc2cc3c(cc2c1=O)OC1CCCN1C3=O` (stereo unspecified): the outcome was inactive.
In the case of `C#CCn1cnc2cc3c(cc2c1=O)OC1CCCN1C3=O` (stereo unspecified), the result was inactive.
For `O=C1c2cc3nnn(CCn4cccn4)c(=O)c3cc2OC2CCCN12` (stereo unspecified), the result was inactive.
On the same count and under the same terms, the same measure for `C#CCn1nnc2cc3c(cc2c1=O)OC1CCCN1C3=O` (stereo unspecified): “inactive”.

The experiment is the same for the next values; noted with them: route intraperitoneal.
For the compound `O=C1c2cc3ncn(CCc4ccccc4)c(=O)c3cc2OC2CCCN12` (stereo unspecified), the Activity stood at 2%.
Regarding `C#C[C@H](Cc1cccc(F)c1)n1nnc2cc3c(cc2c1=O)OCN(C1CC1)C3=O`, the Activity was determined as 10%.
On to `CC[C@H](Cc1cccc(F)c1)n1nnc2cc3c(cc2c1=O)OC1CCCN1C3=O` (stereo partly specified), for which the Activity is recorded as 2%.
In the case of `C[C@H](Cn1ncnn1)n1nnc2cc3c(cc2c1=O)OCN(C1CC1)C3=O`, the Activity is reported as 33%.
`O=C1c2cc3c(cc2OCN1CCc1cccc(F)c1)C(=O)N1CCCC1O3` (stereo unspecified): the Activity was found to be 2%.
For the compound `C[C@H](Cn1cnnn1)n1nnc2cc3c(cc2c1=O)OCN(C1CC1)C3=O`, the Activity is listed as 7%.
`C#C[C@H](Cc1cc(F)cc(F)c1)n1nnc2cc3c(cc2c1=O)OC1CCCN1C3=O` (stereo partly specified): the Activity worked out at 34%.
Regarding `C[C@H](Cn1nccn1)n1cnc2cc3c(cc2c1=O)OC1CCCN1C3=O` (stereo partly specified), the Activity is given as 7%.
Consider `O=C1c2cc3nnn(CCc4cccc(F)c4)c(=O)c3cc2OC2CCCN12` (stereo unspecified), for which the Activity is on record as 24%.
`C[C@H](Cn1ncnn1)n1cnc2cc3c(cc2c1=O)OC1CCCN1C3=O` (stereo partly specified): the Activity stood at 22%.
On the same count and under the same terms, the result for `C[C@H](Cn1cnnn1)n1nnc2cc3c(cc2c1=O)OC1CCCN1C3=O` (stereo partly specified) reads 10%; that for `C[C@H](Cn1ncnn1)n1nnc2cc3c(cc2c1=O)OC1CCCN1C3=O` (stereo partly specified), 39%.

Another experiment concerns Rattus norvegicus. As to the kind of experiment: Memory enhancing effect in Long-Evans rat assessed as increase in tetanic stimulation of hippocampal long term potentiation at 1 mg/kg, ip. In kind it is functional, organism-based. Further details: dose 1 mg/kg. The note with it: Hippocampus.
Take `C[C@H](Cn1ncnn1)n1nnc2cc3c(cc2c1=O)OCN(C1CC1)C3=O`: the result was Active.

The test system of another experiment is Rattus norvegicus. Briefly: Positive allosteric modulation of AMPA receptor in anesthetized Long-Evans rat assessed as amplitude increase by measuring evoked hilar excitatory post-synaptic field potentials at 10 mg/kg, ip for every 20 secs up to 80 to 100 mins by electrophysiology assay. In kind it is functional. The settings on record: route intraperitoneal.
In the case of `O=C1c2cc3nnn(C4CC4)c(=O)c3cc2OC2CCCN12` (stereo unspecified), the Activity was determined as 3%.

In the next experiment the test system is Rattus norvegicus. As to the kind of experiment: Positive allosteric modulation of AMPA receptor in anesthetized Long-Evans rat assessed as amplitude increase by measuring evoked hilar excitatory post-synaptic field potentials at 1 mg/kg, ip for every 20 secs up to 80 to 100 mins by electrophysiology assay. In kind it is functional. The note with it: route intraperitoneal.
In the case of `C#C[C@H](Cc1cc(F)cc(F)c1)n1cnc2cc3c(cc2c1=O)OC1CCCN1C3=O` (stereo partly specified), the Activity was determined as 30%.
As to `C[C@H](Cn1cc(Cl)cn1)n1cnc2cc3c(cc2c1=O)OC1CCCN1C3=O` (stereo partly specified), the Activity is 2%.

In a further experiment the test system is Rattus norvegicus. As to the kind of experiment: Positive allosteric modulation of AMPA receptor in anesthetized Long-Evans rat assessed as amplitude increase by measuring evoked hilar excitatory post-synaptic field potentials at 3 mg/kg, ip for every 20 secs up to 80 to 100 mins by electrophysiology assay. In kind it is functional. The settings on record: route intraperitoneal.
As to `O=C1c2cc3ncn(CCn4cc(Cl)cn4)c(=O)c3cc2OC2CCCN12` (stereo unspecified), the Activity is 3%.
Take `CC[C@H](Cn1cc(Cl)cn1)n1cnc2cc3c(cc2c1=O)OC1CCCN1C3=O` (stereo partly specified): the Activity is given as 4%.
Regarding `O=C1c2cc3ncn(CCc4cccc(F)c4)c(=O)c3cc2OC2CCCN12` (stereo unspecified), the Activity turned out to be 27%.

The next experiment relates to Rattus norvegicus. Briefly: Positive allosteric modulation of AMPA receptor in anesthetized Long-Evans rat assessed as amplitude increase by measuring evoked hilar excitatory post-synaptic field potentials at 1 mg/kg, iv for every 20 secs up to 80 to 100 mins by electrophysiology assay. In kind it is functional.
Settings: not given
As for `O=C1c2cc3c(cc2OCN1CCc1cccc(F)c1)C(=O)N1CCCC1O3` (stereo unspecified), the Activity was determined as 28%.
Turning to `O=C1c2cc3nnn(CCc4cccc(F)c4)c(=O)c3cc2OC2CCCN12` (stereo unspecified), the Activity came to 24%.

The test system of the next experiment is Rattus norvegicus. As to the kind of experiment: Positive allosteric modulation of AMPA receptor in anesthetized Long-Evans rat assessed as amplitude increase by measuring evoked hilar excitatory post-synaptic field potentials at 0.5 mg/kg, iv for every 20 secs up to 80 to 100 mins by electrophysiology assay. In kind it is functional.
Settings: not given
Consider `O=C1c2cc3ncn(CCc4cccc(F)c4)c(=O)c3cc2OC2CCCN12` (stereo unspecified), for which the Activity was 21%.
